{"source": "patent US12673039B2", "about": "“Methods of inducing autophagy using coumarin derivatives and related compounds” (Buck Institute for Research on Aging, priority 2019, dated 2026)", "key": {"[1]": {"system": "parkin mutant PD mouse model", "assay": "Age-related parkin mutant PD mouse model, C1 in the feed", "format": "in vivo", "conditions": "oral in the feed", "source_text": "Relative TFEB expression as assessed by qPCR from mRNA extracted from the SNpc of parkin mutant versus WT littermates administered C1 in the feed versus normal chow; UA was included as a positive control.\nStereological DAergic SNpc counts and motor behavior as assessed by rearing frequency in parkin mutant versus WT littermates administered C1 in the feed versus normal chow."}, "C. elegans": {"system": "C. elegans", "assay": "FCCP mitochondrial toxin stress assay in C. elegans", "format": "in vivo", "conditions": "for resistance to mitochondrial toxin FCCP (survival): wild type worms, 24 hours treatment", "experimental": "FIG. 20, panels A-H: AIC106 treatment improves mitochondrial health. Panel A) Changes in mitochondrial membrane potential were determined by quantifying fluorescence intensity of individual TMRM stained wild type N2 worms post-24 hours treatment with AIC106 and DMSO-control. [N=3 independent experiments (mean±SD). ****p<0.0001, by unpaired t-test]. Panel B) TMRM stained wild type N2 worms were monitored by fluorescence microscopy. Panel C) Mitophagy flux upon AIC106 treatment was determined in DLM14 young adult worms (TOMM-7 tagged to a peptide linked dual-Fluorescent GFP) by quantifying relative fold changes in ratio of monomeric-fluorescent protein (mFP) to dual-fluorescent protein (dFP) compared to DMSO-control. Panel D) Ability of AIC106 to rescue mitochondrial toxin (FCCP) sensitivity was determined as percent survival of 24 hours treated AIC106 and DMSO-control wild type N2 worms. [N=3 independent experiments (mean±SD). ****p<0.0001, by two-way ANOVA with Sidak's multiple comparisons test]. Panel E) Ability of AIC106 to rescue enhanced mitochondrial toxin (FCCP, 20 μM) sensitivity in mitophagy deficient parkin/pdr-1 mutant was determined as percent survival of 24 hours treated AIC106 and DMSO-control pdr-1(tm598) and pdr-1(tm598); hlh-30(tm1978) mutant. […] Panel F) Effect of AIC106 on mitochondrial biogenesis was determined by quantifying GFP fluorescence intensity in an individual SJ4143 worm (GFP targeted in mitochondria of intestinal cells) post-72 hours of treatment with AIC106 and DMSO-control. […] Panel G) SJ4143 worms were monitored by fluorescence microscopy. Panel H) Effects of AIC106 on basal (B) and maximum (M) mitochondrial respiration rate were determined by quantifying oxygen consumption rate (OCR) in wild type N2 and hlh-30(tm1978) mutant strain post-24 hours of treatment with AIC106 and DMSO-control. […]\nFIG. 22, panels A-H: AIC106-induced HLH-30 expression is mediated by the nuclear hormone receptor DAF-12. […] Panel F) Protection against mitochondrial toxin (FCCP) was determined by quantifying survival of young adult worms treated 24 hours with DFA or DMSO-control. […]"}}, "data": [{"smiles": "O=c1oc2c3c4c(cc2c2c1CCC2)CCCN4CCC3", "note": "[C1, 2,3,6,7,10,11-Hexahydro-1H,5H-cyclopenta(3,4)(1)benzopyrano(6,7,8-ij)quinolizin-12(9H)-one]", "values": [{"measurement": "motor deficits (rearing frequency)", "setting": "[1]; 6 month period (FIG. 16)", "value": "prevents both neuronal cell loss and motor deficits"}, {"measurement": "neuronal cell loss (DAergic SNpc counts)", "setting": "[1]; 6 month period (FIG. 16)", "value": "prevents both neuronal cell loss and motor deficits"}, {"measurement": "TFEB expression in SNpc", "setting": "[1]; 6 month period from 14-16 mo. (FIG. 15)", "value": "TFEB target engagement"}, {"measurement": "FCCP sensitivity of pdr-1 mutant", "setting": "C. elegans; pdr-1(tm598), FCCP 20 μM, hlh-30 dependent", "value": "significantly rescue enhanced mitochondrial sensitivity of pdr-1 mutant"}, {"measurement": "resistance to mitochondrial toxin FCCP (survival)", "setting": "C. elegans", "value": "more resistant to mitochondrial uncoupler FCCP"}]}, {"smiles": "Cc1cccc(C)c1OCc1cc(C(=O)N2CCC(c3ccncc3)CC2)no1", "note": "[DFA, dafadine-A, reference compound]", "values": [{"measurement": "resistance to mitochondrial toxin FCCP (survival)", "setting": "C. elegans", "value": "protected against mitochondrial toxin FCCP"}]}]}
